Calls of active or inactive are those of the source.

A word on the IC50: it is the concentration at which inhibition is half-maximal. The EC50 is the concentration needed to bring the measured effect to its halfway point.

For experiment [1], the target named is T1, Calpain-2 catalytic subunit (Sus scrofa, UniProt P43367).
T1 sequence (P43367 whole entry): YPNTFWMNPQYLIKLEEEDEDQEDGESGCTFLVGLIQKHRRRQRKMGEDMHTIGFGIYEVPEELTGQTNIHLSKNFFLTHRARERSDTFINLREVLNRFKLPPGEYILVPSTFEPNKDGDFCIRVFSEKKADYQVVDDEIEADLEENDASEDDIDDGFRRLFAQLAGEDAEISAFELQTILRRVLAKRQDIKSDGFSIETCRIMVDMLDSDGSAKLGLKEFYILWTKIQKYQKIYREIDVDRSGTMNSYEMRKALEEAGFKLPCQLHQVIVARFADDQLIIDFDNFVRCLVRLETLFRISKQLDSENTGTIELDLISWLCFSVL
The experiment in a line: m-calpain protease blockers, concentration series – biochemical, fluorogenic peptide substrate, dose response (AID 1420). Format: functional.

The nature of experiment [2]: viability of PTEN-deleted HCT116 cells – cell-based, HCT116 PTEN knockout, dose response (AID 1047).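 Further: HCT116 colon tumor cells with PTEN knocked out; cells exposed to compound for 60 hours before readout; potency for loss of cell viability measured by luminescence.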 Format: functional.
The nature of experiment [3]: viability of HCT116 lacking mutant beta-catenin – cell-based, human colon tumor, dose response (AID 1045).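 Further: HCT116 colon tumor cells with beta catenin knocked out; cells exposed to compound for 60 hours.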 Format: functional.
For experiment [4], the target named is T2, Caspase-3 (Homo sapiens, UniProt P42574).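 Further: Dose-response selectivity test against caspase-3 for candidate inhibitors of sentrin-specific proteases (SENPs).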
T2 sequence (P42574 whole entry): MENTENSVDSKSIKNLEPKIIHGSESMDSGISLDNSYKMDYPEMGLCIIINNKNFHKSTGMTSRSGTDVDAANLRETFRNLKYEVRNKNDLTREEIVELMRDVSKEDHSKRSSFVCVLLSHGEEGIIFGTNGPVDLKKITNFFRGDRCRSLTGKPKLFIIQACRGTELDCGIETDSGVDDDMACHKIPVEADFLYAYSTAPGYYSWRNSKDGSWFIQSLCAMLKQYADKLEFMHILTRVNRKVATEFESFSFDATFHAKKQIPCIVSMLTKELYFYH
In kind it is functional.

The target of experiment [5] is T3, Sentrin-specific protease 7 (Homo sapiens, UniProt Q9BQF6).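 Further: Luminescence-based dose-response confirmation of ultra-high-throughput screening hits, measuring inhibition of SENP7.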
T3 sequence (Q9BQF6 whole entry): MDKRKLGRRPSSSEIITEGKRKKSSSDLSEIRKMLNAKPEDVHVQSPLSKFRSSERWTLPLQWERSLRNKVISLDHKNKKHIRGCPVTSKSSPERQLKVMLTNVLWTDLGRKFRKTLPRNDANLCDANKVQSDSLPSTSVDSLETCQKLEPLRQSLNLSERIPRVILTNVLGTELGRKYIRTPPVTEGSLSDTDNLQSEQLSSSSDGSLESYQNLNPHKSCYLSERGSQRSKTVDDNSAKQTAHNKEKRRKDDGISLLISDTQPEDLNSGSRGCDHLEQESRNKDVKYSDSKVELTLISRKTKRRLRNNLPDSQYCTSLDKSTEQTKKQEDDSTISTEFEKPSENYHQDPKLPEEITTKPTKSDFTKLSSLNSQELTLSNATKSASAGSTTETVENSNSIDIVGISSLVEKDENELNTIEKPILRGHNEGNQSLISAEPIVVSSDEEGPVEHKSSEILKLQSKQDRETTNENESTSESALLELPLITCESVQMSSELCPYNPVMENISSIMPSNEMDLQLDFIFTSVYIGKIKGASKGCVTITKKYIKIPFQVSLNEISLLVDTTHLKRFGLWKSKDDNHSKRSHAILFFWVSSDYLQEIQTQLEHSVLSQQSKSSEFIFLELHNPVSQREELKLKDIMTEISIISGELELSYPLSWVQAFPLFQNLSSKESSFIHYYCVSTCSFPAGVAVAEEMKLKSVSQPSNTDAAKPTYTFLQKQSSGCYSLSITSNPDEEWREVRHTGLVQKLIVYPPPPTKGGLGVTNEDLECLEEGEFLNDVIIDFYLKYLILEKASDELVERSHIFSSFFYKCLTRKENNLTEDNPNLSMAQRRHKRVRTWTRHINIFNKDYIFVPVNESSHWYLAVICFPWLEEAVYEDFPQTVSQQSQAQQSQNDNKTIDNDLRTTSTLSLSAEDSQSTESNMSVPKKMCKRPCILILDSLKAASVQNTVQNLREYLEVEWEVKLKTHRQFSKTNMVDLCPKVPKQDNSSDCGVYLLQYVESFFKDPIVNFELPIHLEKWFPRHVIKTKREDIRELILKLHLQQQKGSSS
Format: functional.

The target in experiment [6] is T4, Sentrin-specific protease 6 (Homo sapiens, UniProt Q9GZR1).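 Further: Luminescence-based dose-response confirmatory assay of SENP6 inhibition, following up an ultra-high-throughput screen.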
T4 sequence (Q9GZR1 whole entry): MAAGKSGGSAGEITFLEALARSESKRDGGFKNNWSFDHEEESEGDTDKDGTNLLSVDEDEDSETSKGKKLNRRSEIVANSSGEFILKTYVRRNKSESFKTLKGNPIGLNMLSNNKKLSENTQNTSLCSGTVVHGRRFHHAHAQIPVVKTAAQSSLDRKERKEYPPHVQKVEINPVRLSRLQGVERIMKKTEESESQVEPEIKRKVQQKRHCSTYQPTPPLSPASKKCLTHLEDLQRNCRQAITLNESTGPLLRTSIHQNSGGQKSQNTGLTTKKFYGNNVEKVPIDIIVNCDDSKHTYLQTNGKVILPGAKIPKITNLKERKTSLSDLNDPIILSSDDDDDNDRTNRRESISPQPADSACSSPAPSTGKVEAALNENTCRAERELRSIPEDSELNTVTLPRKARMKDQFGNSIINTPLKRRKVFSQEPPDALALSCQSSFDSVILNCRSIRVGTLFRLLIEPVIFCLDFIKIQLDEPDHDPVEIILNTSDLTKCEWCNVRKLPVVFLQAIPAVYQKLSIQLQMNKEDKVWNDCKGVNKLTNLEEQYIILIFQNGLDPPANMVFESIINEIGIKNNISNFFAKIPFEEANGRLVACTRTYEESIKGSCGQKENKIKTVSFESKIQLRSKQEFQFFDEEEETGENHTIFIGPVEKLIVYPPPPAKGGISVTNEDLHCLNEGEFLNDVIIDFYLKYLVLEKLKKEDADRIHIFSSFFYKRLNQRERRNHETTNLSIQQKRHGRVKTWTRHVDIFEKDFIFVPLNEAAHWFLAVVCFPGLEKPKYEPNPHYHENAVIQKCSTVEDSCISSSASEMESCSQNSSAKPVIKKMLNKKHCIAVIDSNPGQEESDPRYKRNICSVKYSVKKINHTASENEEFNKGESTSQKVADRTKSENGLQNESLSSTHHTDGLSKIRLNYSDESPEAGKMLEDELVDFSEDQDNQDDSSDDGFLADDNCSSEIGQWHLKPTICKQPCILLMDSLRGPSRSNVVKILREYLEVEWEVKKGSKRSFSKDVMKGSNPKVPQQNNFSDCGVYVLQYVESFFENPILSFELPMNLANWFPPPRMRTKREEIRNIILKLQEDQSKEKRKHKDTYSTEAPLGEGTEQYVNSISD
Format: functional.

Experiment [7] concerns the target T5, Sentrin-specific protease 8 (Homo sapiens, UniProt Q96LD8).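 Further: luminescence read-out of SENP8 inhibition, dose-response confirmation following an ultra-high-throughput screen.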
T5 sequence (Q96LD8 whole entry): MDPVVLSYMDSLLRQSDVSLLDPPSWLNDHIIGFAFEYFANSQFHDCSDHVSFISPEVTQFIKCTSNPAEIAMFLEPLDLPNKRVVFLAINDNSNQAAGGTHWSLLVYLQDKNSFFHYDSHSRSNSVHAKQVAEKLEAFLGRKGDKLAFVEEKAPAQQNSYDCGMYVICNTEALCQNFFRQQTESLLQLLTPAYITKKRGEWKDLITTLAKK
In kind it is functional.

The target in experiment [8] is T6, Protein skinhead-1 (Caenorhabditis elegans, UniProt P34707).
T6 sequence (P34707 whole entry): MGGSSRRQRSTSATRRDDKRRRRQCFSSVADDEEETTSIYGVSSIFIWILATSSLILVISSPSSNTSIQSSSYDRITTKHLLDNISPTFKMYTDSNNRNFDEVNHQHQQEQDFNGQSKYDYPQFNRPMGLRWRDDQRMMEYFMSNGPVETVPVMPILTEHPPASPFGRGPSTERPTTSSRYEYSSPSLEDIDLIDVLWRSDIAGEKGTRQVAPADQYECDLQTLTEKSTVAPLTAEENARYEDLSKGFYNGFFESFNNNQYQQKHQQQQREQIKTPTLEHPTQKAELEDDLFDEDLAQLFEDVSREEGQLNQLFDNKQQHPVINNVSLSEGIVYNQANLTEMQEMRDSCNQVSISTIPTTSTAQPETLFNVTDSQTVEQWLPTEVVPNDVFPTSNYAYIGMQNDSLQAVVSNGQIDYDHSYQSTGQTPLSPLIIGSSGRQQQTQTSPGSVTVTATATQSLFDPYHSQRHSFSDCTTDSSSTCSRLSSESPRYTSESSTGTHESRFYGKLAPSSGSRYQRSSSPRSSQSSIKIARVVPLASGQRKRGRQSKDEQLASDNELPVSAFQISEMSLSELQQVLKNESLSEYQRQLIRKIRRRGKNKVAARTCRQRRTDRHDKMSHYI
In kind it is functional.

For experiment [9], the system named is Streptococcus sp. 'group A'. The experiment in a line: Streptococcus pyogenes SK(-)GAS viability under kanamycin – luminescence, BacTiterGlo, confirmation, counter-screen for streptokinase expression inhibitor project, dose response (AID 1900). Format: functional, organism-based. On the technique in general: A counterscreen serves to expose hits that act by an unwanted route or on another target.

Experiment [10] addresses T7, Streptokinase A (Streptococcus pyogenes serotype M1, UniProt P10520).
T7 sequence (P10520 whole entry): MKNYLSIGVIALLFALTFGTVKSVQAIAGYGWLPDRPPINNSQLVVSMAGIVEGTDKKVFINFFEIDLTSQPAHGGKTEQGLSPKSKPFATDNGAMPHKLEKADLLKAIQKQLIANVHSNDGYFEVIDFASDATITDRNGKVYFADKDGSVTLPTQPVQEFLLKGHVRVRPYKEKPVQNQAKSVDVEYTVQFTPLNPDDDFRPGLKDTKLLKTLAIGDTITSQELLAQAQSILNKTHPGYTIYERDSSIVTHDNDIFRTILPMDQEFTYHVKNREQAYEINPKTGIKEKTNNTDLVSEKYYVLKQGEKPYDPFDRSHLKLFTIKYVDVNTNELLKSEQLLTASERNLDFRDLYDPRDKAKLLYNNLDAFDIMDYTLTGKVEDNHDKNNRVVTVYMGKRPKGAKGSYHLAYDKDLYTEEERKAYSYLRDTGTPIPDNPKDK
The experiment in a line: viability-normalized secreted streptokinase activity reduction – plasminogen activation absorbance, OD405, dose response (AID 1914).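 Further: secreted streptokinase activity via plasminogen activation per viability signal from cell pellet.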 In kind it is functional, Streptococcus pyogenes M1 GAS.

Experiment [11] deals with Streptococcus. The experiment in a line: GAS UMAA2166 growth inhibition – luminescence, BacTiterGlo, counter-screen for streptokinase expression inhibitor project, dose response (AID 1915).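 Further: potency for reduction of bacterial viability or growth.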 In kind it is functional, organism-based.

Regarding `O=C(CCCOc1ccc(Cl)cc1Cl)N1CCc2ccccc2C1`, in experiment [1], the IC50 is 7.32 µM (not active). Take `CC(C)=CC(=O)Nc1nnc(-c2ccc(F)cc2)s1`: the concentration for a half-maximal effect (EC50) in experiment [2] was 18.2 µM (active); in experiment [3] it was 13.8 µM (active). For the compound `CN(C)c1ncc(S(=O)(=O)c2ccc(Cl)cc2)c(-c2ccccc2)n1`, the half-inhibitory concentration (IC50) in experiment [1] is 8.73 µM (not active). With `Clc1ccsc1-c1csc(-c2cccnc2)n1`, the IC50 in [4] was 19.4 µM (active); in experiment [5], 6.3 µM (active); in experiment [6], 11.3 µM (active); in [7], 22.6 µM (active); in [8] it was > 100 µM (inactive). As for `CC(C)c1ccc(CNc2ccc([N+](=O)[O-])cn2)cc1`, the IC50 in [1] is 6.03 µM (active). For `COC(=O)c1ccc(-c2csc(NC(=O)c3ccc(S(=O)(=O)N4CCc5ccccc5C4)cc3)n2)cc1`, the values for the concentration giving a half-maximal response (EC50) in experiment [2] and in [3] were 10.3 µM (active) and 10.2 µM (active), respectively. Consider `CC(C)C[C@H](NC(=O)c1[nH]cnc1C(=O)N[C@@H](CCCCNC(=O)OC(C)(C)C)C(=O)OC(C)(C)C)C(=O)OC(C)(C)C`, for which the IC50 in experiment [1] is given as 3.89 µM (not active).

With `CC(C)NC(=O)NC(=O)CSc1nnc(COc2ccccc2F)n1C(C)C1CC2CCC1C2` (centres undefined), the EC50 in experiment [9] is 5.26 µM (active); in [10] it was 16.8 µM (active); in [2], 19 µM (active); in experiment [3], 20.8 µM (active); in experiment [11], > 150 µM (not active).

As for `N#CCOc1nc(N2CCCC2)nc(N2CCCC2)n1`, the IC50 in experiment [1] is 14.3 µM (not active). In the case of `COc1cc2c(cc1OC)CN(c1nc(CN3CCOCC3)nc3sc4c(c13)CCCC4)CC2`, the EC50 was 4.64 µM (active) in [2] and 6.69 µM (active) in experiment [3]. As to `O=C(CN=C(S)N(Cc1ccccc1)Cc1cccs1)NCc1ccc(F)cc1`, the 50% inhibitory concentration (IC50) in experiment [1] is given as 9.61 µM (not active). On to `COC(=O)c1c(C)oc(C)c1S(=O)(=O)Nc1ccc(C(C)C)cc1`, for which, in experiment [1], the IC50 is given as 11.4 µM (not active). Still for that read-out and setting: the figure for `CCOc1cc(C(=O)N/N=C\c2cn(CC)nc2C)cc(OCC)c1OCC` is > 50 µM (not active).

The values above are taken from ChEMBL document CHEMBL1201862, “PubChem BioAssay data set” (2004).
